The values below are quoted from earlier work in patent US20050222211A1, “S(-)rabeprazole compositions and methods” (Sepracor Inc., priority 1998, published 2005).

Series [1] has as its system CYP 1A1 mRNA. To be noted: compared with pantoprazole.
The subject of series [2] is gastric acid secretion. The settings on record: humans.
In series [3] the target is CYP 2C19 (Homo sapiens, UniProt P33261). The settings on record: compared with omeprazole.
For series [4], the system named is CYP 3A. The settings on record: compared with omeprazole.
The conditions of series [5]: humans; depending on dose.

CYP 2C19, sequence (P33261 whole entry, species assumed): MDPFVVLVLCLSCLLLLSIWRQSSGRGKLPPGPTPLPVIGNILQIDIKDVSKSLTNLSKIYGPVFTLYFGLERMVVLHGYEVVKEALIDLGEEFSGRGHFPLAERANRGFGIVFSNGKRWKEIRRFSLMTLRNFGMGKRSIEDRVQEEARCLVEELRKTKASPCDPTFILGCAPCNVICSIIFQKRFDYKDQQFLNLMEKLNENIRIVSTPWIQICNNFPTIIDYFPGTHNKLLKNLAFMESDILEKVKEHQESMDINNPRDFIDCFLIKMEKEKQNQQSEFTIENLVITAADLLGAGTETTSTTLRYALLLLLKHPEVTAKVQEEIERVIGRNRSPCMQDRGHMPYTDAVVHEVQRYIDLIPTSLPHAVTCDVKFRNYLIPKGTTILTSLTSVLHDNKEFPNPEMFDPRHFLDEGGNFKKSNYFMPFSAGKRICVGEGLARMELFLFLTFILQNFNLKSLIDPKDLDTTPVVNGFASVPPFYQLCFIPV

With `COCCCOc1ccnc(C[S+]([O-])c2nc3ccccc3[nH]2)c1C` (racemic) [racemic rabeprazole], in series [1], the “induction of CYP 1A1 mRNA” value was “more potent inducer of CYP 1A1 mRNA than is pantoprazole”. Besides, in series [2], the “duration of the acid inhibitory effect” value is reported as “about 24 hours”. Moreover, the “inhibition of CYP 2C19” value in series [3] is recorded as “less inhibitory of CYP 2C19 than is omeprazole”. For the same compound, the “effects on hepatic drug metabolizing enzyme systems such as CYP 3A” value in series [4] is recorded as “comparable to omeprazole”. In addition, the serum half-life in series [5] was 0.833 to 1.5 h.
